Test results published in US11731946B2, “Broad spectrum antivirulence, anti-persistence compounds” (priority 2017, dated 2023).

Tests used:
Assay type in all cases: cell-based, P. aeruginosa
[1] = tested on: MvfR regulon; assay: LC/MS quantification of HAQs and related molecules in bacterial culture supernatants; conditions: Pseudomonas aeruginosa
[2] = tested on: MvfR regulon; assay: Quantification of pyocyanin (OD520nm of chloroform-extracted cultures); conditions: Pseudomonas aeruginosa; for activity at 50 µM: read-out: pyocyanin @50 uM (%), compound at 50 uM; for activity at 1 µM: read-out: pyocyanin @1 uM (%), compound at 1 uM; for activity at 10 µM: read-out: pyocyanin @10 uM (%), compound at 10 uM
[3] = tested on: MvfR regulon; assay: pqsA gene expression (pqsA-GFP reporter); conditions: Pseudomonas aeruginosa; for activity at 50 µM: read-out: pqsA @50 uM (%), compound at 50 uM; for activity at 10 µM: read-out: pqsA @10 uM (%), compound at 10 uM
Experimental: Experiments were performed to identify compounds that inhibit the MvfR regulon without altering growth, ultimately attenuating P. aeruginosa infection. MvfR is a LysR-type transcriptional regulator that directs HAQs synthesis, including that of its ligands, 4-hydroxy-2-heptylquinoline (HHQ) and 3,4-dihydroxy-2-heptylquinoline (PQS).
MvfR promotes the production of HAQs by binding to and activating the pqs operon, which encodes enzymes for HAQ synthesis. Anthranilic acid (AA), derived from the phnAB, kynABU, and trpEG pathways, is the precursor for HAQs. pqsA encodes an anthranilate-coenzyme A ligase, which activates anthranilic acid and catalyzes the first committed step to HAQ production. The exact roles of PqsB and PqsC are unknown, though both show homology to acyl-carrier-proteins and both are required for HHQ and PQS production. […] The final gene of the operon, pqsE encodes for a putative hydrolase, and while the protein is not required for the synthesis of HAQs, it is necessary for pyocyanin production.
Nanomolar levels of most of these MvfR antagonists impeded the activity of MvfR and in consequence the MvfR virulence regulated ACRP functions, including: (1) the production of the important pro-acute P. aeruginosa virulence factor pyocyanin (see e.g., FIG. 9A) the efficacy of two of these potent inhibitors, D57 and D88, was also confirmed by testing many different MDR P. aeruginosa clinical isolates (see e.g., FIG. 11A-11B), providing further confidence of their inhibitory potency; (2) the expression of the genes that encode the enzymes catalyzing the synthesis of both pro-acute and pro-persistence MvfR-regulated virulence molecules, 4-hydroxyl-2-alkyl-quinolines (HAQs) and 2-aminoacetophenon (2-AA), as assessed by pqsAGFP reporter gene expression (see e.g., FIG. 9B) and HAQ production showing the levels of MvfR inducers/ligands HHQ and PQS as well as of the molecules critical for biofilm and Antibiotic tolerant/persiters cells formation HQNO and 2-AA (see e.g., FIG. 9C); (3) AT/P cell formation (see e.g., FIGS. 11A, 12A); (4) biofilm formation (see e.g., FIG. 12B); and (5) biofilm dispersal of preformed biofilm by potentiating antibiotic action (see e.g., FIG. 11B).

| SMILES | activity at 50 µM ([1]; read-out: 2-AA @50 uM) [%] | activity at 50 µM ([1]; read-out: DHQ @50 uM) [%] | activity at 50 µM ([1]; read-out: HHQ @50 uM (%)) [%] | activity at 50 µM ([1]; read-out: HQNO @50 uM (%)) [%] | activity at 50 µM ([1]; read-out: PQS @50 uM (%)) [%] | activity at 50 µM [2] [%] | activity at 50 µM [3] [%] | activity at 50 µM ([1]; read-out: AA @50 uM) [%] | IC50 ([3]; read-out: IC50 pqsA (μM)) [µM] | activity at 10 µM [3] [%] | activity at 1 µM [2] [%] | activity at 10 µM [2] [%] | IC50 ([2]; read-out: IC50 pyocyanin (μM)) [µM] |
| --- | --- | --- | --- | --- | --- | --- | --- | --- | --- | --- | --- | --- | --- |
| Cc1cc(F)ccc1NCC(=O)Nc1ccc(F)cc1 [Compound 5] | 80.4 | 84.7 | 94.6 | 92.3 | 88.5 | 83.6 | 92 |  |  |  |  |  |  |
| CC(=O)c1ccc(NC(=O)CC(=O)Nc2ccc(C#N)cc2)cc1 [Compound 63] | 89.9 | 106 | 120 | 101 | 119 | 65.6 | 28 | 131 | 57.1 | 86.5 |  |  |  |
| N#Cc1ccc(NC(=O)CC(=O)Nc2ccc(NC(=O)C(F)(F)F)cc2)cc1 [Compound 69] | 117 | 108 | 103 | 101 | 101 | 93.8 | 84.9 | 82.4 |  | 94.2 |  |  |  |
| Cc1ccccc1NCC(=O)Nc1ccc(C#N)cc1 [Compound 10] | 63.9 | 59.5 | 76.4 | 92.5 | 124 | 94.3 | 92.9 |  |  |  |  |  |  |
| N#Cc1ccc(NC(=O)CCNc2ccc(F)cc2F)cc1 [Compound 47] | 100 | 99.3 | 109 | 101 | 108 | 88.3 | 74.3 | 129 |  |  |  |  |  |
| N#Cc1ccc(NC(=O)CNC(=O)c2ccc(F)cc2)cc1 [Compound 58] | 86.6 | 89.8 | 77.8 | 85.9 | 85.1 | 94 | 70.7 | 32.3 |  | 11 |  |  |  |
| N#Cc1ccc(NC(=O)CC(=O)Nc2ccc(C(=O)C(F)(F)F)cc2)cc1 [Compound 64] | 140 | 88.8 | 107 | 103 | 104 | 84 | 102 | 176 |  | 107 |  |  |  |
| Cc1cc(F)ccc1CCNC(=O)c1ccc(C#N)cc1 [Compound 51] | 106 | 95.5 | 96.2 | 102 | 93.5 | 110 | 91.4 | 68 |  |  |  |  |  |
| N#Cc1ccc(NC(=O)CCC(=O)Nc2ccc(F)cc2)cc1 [Compound 61] | 93.6 | 93 | 79 | 85.5 | 87.2 | 99 | 77.8 | 42.4 |  | 112 |  |  |  |
| Cc1cc(F)ccc1NC(=O)CC(=O)Nc1ccc(C#N)cc1 [Compound 62] | 72.7 | 84.7 | 79.6 | 86.5 | 83.5 | 59.5 | 43.6 | 58.7 |  | 110 |  |  |  |
| Cc1ccc(NC(=O)CNc2ccc(F)cc2C)c(Br)c1 [Compound 24] |  |  |  |  |  | 108 | 92.3 |  |  |  |  |  |  |
| N#Cc1ccc(NC(=O)CC(=O)Nc2cccc(F)c2)cc1 [Compound 87] |  |  |  |  |  | 30.2 |  |  |  | 77.8 | 94.6 | 65.5 |  |
| N#Cc1ccc(NC(=O)CC(=O)Nc2ccncc2)cc1 [Compound 100] |  |  |  |  |  | 81.9 |  |  |  | 88.9 | 66.3 | 101 |  |
| N#Cc1ccc2c(c1)OCCN2C(=O)CC(=O)Nc1ccc(Oc2ccccc2)cc1 [Compound 105] |  |  |  |  |  | 11.4 |  |  |  | 47.3 | 68 | 32 | 2.78 |
| N#Cc1ccc(NC(=O)CC(O)Cc2ccc(F)cc2)cc1 (stereo not drawn) [Compound 104] |  |  |  |  |  | 95.3 |  |  |  | 97.3 |  |  |  |
| N#Cc1ccc(NC(=O)CC(=O)Nc2ccccc2Br)cc1 [Compound 55] |  |  |  |  |  | 86.3 |  |  |  | 94 | 99 | 70.7 |  |
| Cc1cc(F)ccc1NCC(=O)Nc1ccc(C(=O)N(C)C)cc1 [Compound 31] |  |  |  |  |  | 109 | 99.8 |  |  |  |  |  |  |
